Measurements: ChEMBL document CHEMBL3600310 (J Med Chem, 2015)

Key:
Type in all cases: functional, cell-based
[1] = test system: A549; assay: Cytotoxicity against human A549 cells after 72 hrs by MTT assay; conditions: A549, 72 h
[2] = test system: HCT-116; assay: Cytotoxicity against human HCT116 cells after 72 hrs by MTT assay; conditions: HCT-116, 72 h
[3] = test system: MDA-MB-435; assay: Cytotoxicity against human MDA-MB-435 cells after 72 hrs by MTT assay; conditions: MDA-MB-435, 72 h

COc1ccc2[nH]c3c(c2c1)CCN1C(=O)c2ccc(Cl)cc2OC31 (configuration not stated)
IC50 [1]: 3.8 µM | IC50 [2]: 8.7 µM | IC50 [3]: 4.6 µM

CC(C)C(=O)Nc1ccc2c(c1)C(=O)N1CCc3c([nH]c4ccccc34)C1O2 (configuration not stated)
IC50 [1]: 28.4 µM | IC50 [2]: 9.4 µM | IC50 [3]: 11.7 µM

O=C1c2c(ccc3ccccc23)OC2c3[nH]c4ccc(O)cc4c3CCN12 (configuration not stated)
IC50 [1]: 3.1 µM | IC50 [2]: 6.3 µM | IC50 [3]: 2.7 µM

COc1ccc2[nH]c3c(c2c1)CCN1C(=O)c2c(ccn2C)N(C)C31 (configuration not stated)
IC50 [1]: 28.5 µM | IC50 [2]: 54.1 µM | IC50 [3]: 42 µM

O=C1c2cc(Br)ccc2OC2c3[nH]c4ccccc4c3CCN12 (configuration not stated)
IC50 [1]: 1.6 µM | IC50 [2]: 13.8 µM | IC50 [3]: 3.7 µM

O=C1c2cccc(O)c2OC2c3[nH]c4ccc(O)cc4c3CCN12 (configuration not stated)
IC50 [1]: > 200 µM | IC50 [2]: 53.4 µM | IC50 [3]: 66.2 µM

O=C1c2ccc(C(F)(F)F)cc2OC2c3[nH]c4ccccc4c3CCN12 (configuration not stated)
IC50 [1]: 25.8 µM | IC50 [2]: 23.3 µM | IC50 [3]: 21.9 µM

S=C1c2ccccc2OC2c3[nH]c4ccccc4c3CCN12 (configuration not stated)
IC50 [1]: 7.7 µM | IC50 [2]: 5.6 µM | IC50 [3]: 4.8 µM

COc1ccc2[nH]c3c(c2c1)CCCN1C(=O)c2ccccc2N(C)C31 (configuration not stated)
IC50 [1]: > 200 µM | IC50 [2]: > 200 µM | IC50 [3]: > 200 µM

O=C1c2ccccc2OC2c3[nH]c4ccc(Cl)cc4c3CCN12 (configuration not stated)
IC50 [1]: 3.49 µM | IC50 [2]: 2.1 µM | IC50 [3]: 5.59 µM

O=C1c2cc(I)cc(I)c2OC2c3[nH]c4ccccc4c3CCN12 (configuration not stated)
IC50 [1]: > 200 µM | IC50 [2]: 24.4 µM | IC50 [3]: > 200 µM

O=C1c2cccc(O)c2OC2c3[nH]c4ccccc4c3CCN12 (configuration not stated)
IC50 [1]: 103 µM | IC50 [2]: > 200 µM | IC50 [3]: 42.3 µM

COc1ccc2[nH]c3c(c2c1)CCN1C(=O)c2cc(N)ccc2OC31 (configuration not stated)
IC50 [1]: 114 µM | IC50 [2]: 42.8 µM | IC50 [3]: 132 µM

O=C1c2cc(Br)ccc2OC2c3[nH]c4ccc(O)cc4c3CCN12 (configuration not stated)
IC50 [1]: 0.06 µM | IC50 [2]: < 0.003 µM | IC50 [3]: < 0.003 µM

COc1ccc2[nH]c3c(c2c1)CCN1C(=O)c2ccccc2C31O (configuration not stated)
IC50 [1]: > 200 µM | IC50 [2]: > 200 µM | IC50 [3]: > 200 µM

COc1ccc2c(c1)OC1c3[nH]c4ccccc4c3CCN1C2=O (configuration not stated)
IC50 [1]: 174 µM | IC50 [2]: 71.2 µM | IC50 [3]: 52.3 µM

COc1ccc2[nH]c3c(c2c1)CCN1C(=O)c2sccc2N(C)C31 (configuration not stated)
IC50 [1]: > 200 µM | IC50 [2]: > 200 µM | IC50 [3]: > 200 µM

O=C1c2cc3ccccc3cc2OC2c3[nH]c4ccc(O)cc4c3CCN12 (configuration not stated)
IC50 [1]: 5.6 µM | IC50 [2]: 5.1 µM | IC50 [3]: 5.1 µM

COc1ccc2[nH]c3c(c2c1)CCN1C(=O)c2cscc2N(C)C31 (configuration not stated)
IC50 [1]: 32.3 µM | IC50 [2]: 94.9 µM | IC50 [3]: 49 µM

O=C1c2c(F)cccc2OC2c3[nH]c4ccccc4c3CCN12 (configuration not stated)
IC50 [1]: 35.1 µM | IC50 [2]: 31 µM | IC50 [3]: 71 µM

COc1ccc2[nH]c3c(c2c1)CCN1C(=O)c2cc(Cl)ccc2OC31 (configuration not stated)
IC50 [1]: 0.05 µM | IC50 [2]: 1 µM | IC50 [3]: 2.4 µM

O=C1c2ccc(O)cc2OC2c3[nH]c4ccccc4c3CCN12 (configuration not stated)
IC50 [1]: 17.5 µM | IC50 [2]: 54.1 µM | IC50 [3]: 29.3 µM

CN1c2cscc2C(=O)N2CCc3c([nH]c4ccc(O)cc34)C21 (configuration not stated)
IC50 [1]: 3.9 µM | IC50 [2]: 4.8 µM | IC50 [3]: 32.3 µM

COc1ccc2[nH]c3c(c2c1)CCN1C(=O)c2cccc(OC)c2OC31 (configuration not stated)
IC50 [1]: > 200 µM | IC50 [2]: 52.7 µM | IC50 [3]: 80.1 µM

O=C1c2cc(Cl)ccc2OC2c3[nH]c4ccccc4c3CCN12 (configuration not stated)
IC50 [1]: 0.05 µM | IC50 [2]: 1.4 µM | IC50 [3]: 0.6 µM

Cc1cccc2c1C(=O)N1CCc3c([nH]c4ccccc34)C1O2 (configuration not stated)
IC50 [1]: > 200 µM | IC50 [2]: 38.1 µM | IC50 [3]: > 200 µM

Nc1ccc2c(c1)C(=O)N1CCc3c([nH]c4ccccc34)C1O2 (configuration not stated)
IC50 [1]: 2.7 µM | IC50 [2]: 2.3 µM | IC50 [3]: 9.1 µM

COc1ccc2[nH]c3c(c2c1)CCN1C(=O)c2ccccc2[C@H]31
IC50 [1]: 193 µM | IC50 [2]: 30.9 µM | IC50 [3]: > 200 µM

COc1ccc2oc3c(c2c1)CCCN1C(=O)c2ccccc2N(C)C31 (configuration not stated)
IC50 [1]: 6.2 µM | IC50 [2]: 5.3 µM | IC50 [3]: 28.4 µM
